Data on ten compounds can be found in ChEMBL document CHEMBL1201862, “PubChem BioAssay data set” (2004).

Among the test systems are 786-0; A498; ACHN; DU-145; EKVX; HCT-15; HL-60; Hs-578T; IGROV-1; MDA-MB-231; MDA-MB-435; MDA-N; MOLT-4; NCI-H226; PC-3; RPMI-8226; RXF 393; SF-268; SF-539; UO-31.
Experiment in all cases: growth of human tumour cells (NCI), 48 h

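Cells were grown in 96-well plates and exposed to each compound for 48 hours at five concentrations; endpoints were interpolated linearly between bracketing concentrations, or set to the highest concentration if not reached. Abbreviation: GI50, concentration required for 50% inhibition of growth.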 Calls of active or inactive are those of the source. Cut-off read from the data, not from the text of the source: active = GI50 up to about 1.1 µM and inactive = higher.

Regarding `Cc1nc(N)nc(N)c1-c1ccc(Cl)c(Cl)c1` [METOPRINE], the GI50 was 0.273 µM (active) with 786-0; 21.6 µM (inactive) with A498; 0.495 µM (active) with ACHN; 1.72 µM (inactive) in the assay on DU-145; 4.47 µM (inactive) in the assay with EKVX; 0.145 µM with HCT-15. Also, the GI50 in the assay on HL-60 is 0.13 µM (active); in the assay on Hs-578T it was 4.72 µM (inactive); in the assay on IGROV-1 it was 2.54 µM (inactive); in the assay with MDA-MB-231, 0.466 µM (active); in the assay with MDA-MB-435 it was 0.356 µM (active); in the assay on MDA-N, 0.141 µM (active). Also, the GI50 in the assay on MOLT-4 was 0.607 µM (active); with NCI-H226 it was > 33.3 µM (inactive); in the assay on PC-3, 0.0785 µM (active); in the assay on RPMI-8226 it was 6.28 µM (inactive); in the assay on RXF 393, 13.2 µM (inactive); in the assay on SF-268 it was 1 µM (active). Further, the results for the GI50 in the assay on SF-539 and in the assay with UO-31 were 1.21 µM (inactive) and 1.15 µM (inactive), respectively.
`CC(C)OC(=S)Nc1ccc(Cl)c(/C=N/OC(C)(C)C)c1`: the GI50 with 786-0 was 16.7 µM (inactive); with A498 it was 12.6 µM (inactive); with ACHN, 15.1 µM (inactive); in the assay on DU-145 it was 13 µM (inactive); in the assay with EKVX, 15.4 µM (inactive); in the assay on HCT-15, 16.6 µM. For the same compound, the GI50 was 16.4 µM (inactive) in the assay on HL-60; 16.6 µM (inactive) in the assay with Hs-578T; 17.5 µM (inactive) in the assay with IGROV-1; 14.9 µM (inactive) in the assay with MDA-MB-231; 18 µM (inactive) in the assay with MDA-MB-435; 22.9 µM (inactive) with MDA-N. Further, the GI50 was 15.6 µM (inactive) with MOLT-4; 17.9 µM (inactive) in the assay with NCI-H226; 20.1 µM (inactive) in the assay with PC-3; 18.1 µM (inactive) in the assay on RPMI-8226; 14.5 µM (inactive) in the assay with RXF 393; 19.3 µM (inactive) in the assay with SF-268. Also, the GI50 in the assay with SF-539 is 15.5 µM (inactive); in the assay with UO-31 it was 13.9 µM (inactive).
`OCCSCc1ccccc1`: the GI50 with 786-0 was > 100 µM (inactive); in the assay with A498, > 100 µM (inactive); with ACHN, > 100 µM (inactive); with DU-145 it was > 100 µM (inactive); in the assay on EKVX, > 100 µM (inactive); in the assay with HCT-15 it was greater than 100 µM. The GI50 in the assay on HL-60, with Hs-578T, in the assay with IGROV-1, in the assay with MDA-MB-231, in the assay with MDA-MB-435 and with MDA-N was > 100 µM (inactive) throughout. The GI50 with MOLT-4, in the assay with NCI-H226, in the assay on PC-3, in the assay with RPMI-8226, in the assay with RXF 393 and in the assay on SF-268 was > 100 µM (inactive) in each case. In addition, the GI50 in the assay with SF-539 and in the assay with UO-31 was > 100 µM (inactive) in each case.
Regarding `CCOC(=O)NC(OCCN(C)C)(C(F)(F)F)C(F)(F)F`, the GI50 is > 100 µM (inactive) in the assay on 786-0; > 100 µM (inactive) in the assay on A498; > 100 µM (inactive) in the assay on ACHN; > 100 µM (inactive) with DU-145; > 100 µM (inactive) in the assay on EKVX; greater than 100 µM in the assay with HCT-15. Further, the GI50 in the assay with HL-60, in the assay on Hs-578T, in the assay with IGROV-1, in the assay on MDA-MB-231, in the assay with MDA-MB-435 and with MDA-N was > 100 µM (inactive) throughout. Further, the GI50 is > 100 µM (inactive) with MOLT-4; > 100 µM (inactive) in the assay on NCI-H226; > 100 µM (inactive) in the assay with PC-3; > 100 µM (inactive) with RPMI-8226; 9.79 µM (inactive) with RXF 393; > 100 µM (inactive) in the assay on SF-268. For the same compound, the GI50 in the assay with SF-539 and with UO-31 was > 100 µM (inactive) each time.
For `CCNc1cc2c3c(c1)CCN3CCC2`, the GI50 in the assay on 786-0 was > 10 µM (inactive); in the assay with A498, > 10 µM (inactive); in the assay on ACHN, > 10 µM (inactive); with DU-145, > 10 µM (inactive); in the assay on EKVX, 5.86 µM (inactive); in the assay on HCT-15 it was greater than 10 µM. Moreover, the GI50 was 3.23 µM (inactive) in the assay with HL-60; > 10 µM (inactive) with Hs-578T; > 10 µM (inactive) in the assay with IGROV-1; > 10 µM (inactive) in the assay with MDA-MB-231; > 10 µM (inactive) in the assay with MDA-MB-435; > 10 µM (inactive) in the assay on MDA-N. The GI50 was > 10 µM (inactive) in the assay on MOLT-4; > 10 µM (inactive) in the assay with NCI-H226; > 10 µM (inactive) with PC-3; 3.51 µM (inactive) in the assay on RPMI-8226; > 10 µM (inactive) with RXF 393; > 10 µM (inactive) in the assay with SF-268. The GI50 in the assay on SF-539 and in the assay with UO-31 was > 10 µM (inactive) in each case.
Regarding `CCOP(=O)(OCC)/C(C#N)=C/c1cccn1N(C)C`, the GI50 in the assay with 786-0 was > 100 µM (inactive); in the assay with A498 it was > 100 µM (inactive); in the assay with ACHN it was > 100 µM (inactive); in the assay on DU-145, 0.144 µM (active); with EKVX, > 100 µM (inactive); in the assay with HCT-15, greater than 100 µM. For the same compound, the GI50 in the assay on HL-60 is > 100 µM (inactive); with Hs-578T it was > 100 µM (inactive); with IGROV-1, > 100 µM (inactive); in the assay with MDA-MB-231 it was > 100 µM (inactive); with MDA-MB-435, > 100 µM (inactive); in the assay with MDA-N it was 0.0356 µM (active). In addition, the GI50 in the assay on MOLT-4, in the assay on NCI-H226, with PC-3, with RPMI-8226, with RXF 393 and with SF-268 was > 100 µM (inactive) throughout. Moreover, the GI50 with SF-539 and with UO-31 was > 100 µM (inactive) throughout.
Consider `C=C(CN(CC)CC)C1(c2ccccc2)CC2(CCCC2)C(=O)O1` (stereo not given), for which the GI50 in the assay on 786-0 was > 100 µM (inactive); in the assay on A498, > 100 µM (inactive); in the assay on ACHN, > 100 µM (inactive); in the assay on DU-145, > 100 µM (inactive); with EKVX, > 100 µM (inactive); in the assay with HCT-15, greater than 100 µM. Further, the GI50 is 40.6 µM (inactive) with HL-60; > 100 µM (inactive) in the assay with Hs-578T; > 100 µM (inactive) in the assay on IGROV-1; > 100 µM (inactive) in the assay with MDA-MB-231; > 100 µM (inactive) in the assay with MDA-MB-435; > 100 µM (inactive) with MDA-N. For the same compound, the GI50 was 53.1 µM (inactive) in the assay with MOLT-4; 48 µM (inactive) in the assay with NCI-H226; 67 µM (inactive) in the assay with PC-3; 76.2 µM (inactive) with RPMI-8226; > 100 µM (inactive) in the assay on RXF 393; > 100 µM (inactive) in the assay with SF-268. Moreover, the GI50 in the assay with SF-539 and in the assay with UO-31 was > 100 µM (inactive) in each case.
For `CCCCCCCCCCCCCCCCCCNc1ccn(C2OC(CO)C(OP(=O)(O)OCC(COP(=O)(O)OCC3OC(n4cc(F)c(NCCCCCCCCCCCCCCCCCC)nc4=O)CC3O)OC(=O)CCCCCCCCCCCCCCC)C2O)c(=O)n1` (stereo not given), the GI50 in the assay with 786-0 was > 100 µM (inactive); with A498, > 100 µM (inactive); in the assay with ACHN it was > 100 µM (inactive); with DU-145, > 100 µM (inactive); in the assay with EKVX it was > 100 µM (inactive); in the assay with HCT-15, greater than 100 µM. For the same compound, the GI50 with HL-60 was 67.1 µM (inactive); in the assay on Hs-578T it was > 100 µM (inactive); in the assay on IGROV-1, > 100 µM (inactive); in the assay with MDA-MB-231, > 100 µM (inactive); with MDA-MB-435, > 100 µM (inactive); with MDA-N it was > 100 µM (inactive). The GI50 with MOLT-4, in the assay on NCI-H226, in the assay on PC-3, in the assay with RPMI-8226, with RXF 393 and in the assay on SF-268 was > 100 µM (inactive) in each case. Also, the GI50 in the assay with SF-539 and in the assay with UO-31 was > 100 µM (inactive) throughout.
Consider `COc1ccc(C2SCC(=O)N2NC(=O)C(C)Oc2ccc(Cl)cc2Cl)cc1` (stereo not given), for which the GI50 in the assay with 786-0 was 20.3 µM (inactive); in the assay on A498, 25 µM (inactive); in the assay on ACHN it was 72.3 µM (inactive); in the assay on DU-145, 53 µM (inactive); in the assay on EKVX it was 60 µM (inactive); with HCT-15, greater than 100 µM. Besides, the GI50 in the assay with HL-60 was 14.2 µM (inactive); with Hs-578T, 34.5 µM (inactive); with IGROV-1, 37 µM (inactive); in the assay on MDA-MB-231, 26.7 µM (inactive); in the assay with MDA-MB-435, 76.7 µM (inactive); in the assay with MDA-N, 83 µM (inactive). Besides, the GI50 in the assay on MOLT-4 is 28.3 µM (inactive); in the assay on NCI-H226 it was 16.4 µM (inactive); in the assay on PC-3 it was 27.4 µM (inactive); in the assay on RPMI-8226, 30.7 µM (inactive); with RXF 393, 25.6 µM (inactive); in the assay with SF-268, > 100 µM (inactive). Moreover, the figures for the GI50 with SF-539 and in the assay with UO-31 were 17 µM (inactive) and 88.5 µM (inactive), respectively.
As for `C=C(C(=O)O[C@H]1C(=O)C2=C(C)CCC3C(=C)C(=O)O[C@@H]3C2[C@]1(C)O)C1CC[C@]2(C)CCCC(=C)[C@H]2C1` (stereo not given in full), the GI50 was 1.88 µM (inactive) in the assay with 786-0; 10.7 µM (inactive) in the assay with A498; 4.58 µM (inactive) with ACHN; 4.72 µM (inactive) with DU-145; 7.98 µM (inactive) in the assay on EKVX; 3.48 µM in the assay on HCT-15. Further, the GI50 was 2 µM (inactive) in the assay with HL-60; 4.61 µM (inactive) with Hs-578T; 4.62 µM (inactive) in the assay with IGROV-1; 5.78 µM (inactive) with MDA-MB-231; 3.35 µM (inactive) in the assay on MDA-MB-435; 2.71 µM (inactive) with MDA-N. Also, the GI50 with MOLT-4 is 2.21 µM (inactive); in the assay on NCI-H226 it was 17.1 µM (inactive); with PC-3, 5.45 µM (inactive); in the assay on RPMI-8226, 3.46 µM (inactive); in the assay on RXF 393 it was 0.0246 µM (active); in the assay with SF-268 it was 5.6 µM (inactive). The GI50 in the assay with SF-539 is 4.1 µM (inactive); in the assay with UO-31 it was 6.34 µM (inactive).
